Assay results taken from ChEMBL document CHEMBL1201861, “Genomics of Drug Sensitity in Cancer screening data, Wellcome Trust Sanger Institute”.
pIC50: −log10 of the molar value.

How the values were obtained:
Assay in all cases: cells
COLO-824 = format: functional, cell-based, Homo sapiens; conditions: Homo sapiens, COLO-824
Description: SANGER: Inhibition of human COLO-824 cell growth in a cell viability assay.

COR-L88 = format: functional, cell-based, Homo sapiens; conditions: Homo sapiens, COR-L88;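 note: growth inhibition of COR-L88 cells, read out with a cell viability assay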
Description: SANGER: Inhibition of human COR-L88 cell growth in a cell viability assay.

DJM-1 = format: functional, cell-based, Homo sapiens; conditions: Homo sapiens, DJM-1;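 note: growth inhibition of human DJM-1 cells, read out by a cell viability assay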
Description: SANGER: Inhibition of human DJM-1 cell growth in a cell viability assay.

DMS-114 = format: functional, cell-based, Homo sapiens; conditions: Homo sapiens, DMS-114
ES4 = format: functional, cell-based, Homo sapiens; conditions: Homo sapiens, ES4;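 note: growth inhibition of human ES4 cells, read out by a cell viability assay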
Description: SANGER: Inhibition of human ES4 cell growth in a cell viability assay.

GR-ST = format: functional, cell-based, Homo sapiens; conditions: Homo sapiens, GR-ST
Description: SANGER: Inhibition of human GR-ST cell growth in a cell viability assay.

HAL-01 = format: functional, cell-based, Homo sapiens; conditions: Homo sapiens, HAL-01;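 note: growth inhibition of human HAL-01 cells, read out with a cell viability assay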
Description: SANGER: Inhibition of human HAL-01 cell growth in a cell viability assay.

HC-1 = format: functional, cell-based, Homo sapiens; conditions: Homo sapiens, HC-1;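 note: growth inhibition of HC-1 cells measured by a cell viability assay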
Description: SANGER: Inhibition of human HC-1 cell growth in a cell viability assay.

HCC1187 = format: functional, cell-based, Homo sapiens; conditions: Homo sapiens, HCC1187;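 note: growth inhibition of HCC1187 cells, read out with a cell viability assay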
Description: SANGER: Inhibition of human HCC1187 cell growth in a cell viability assay.

HCC2157 = format: functional, cell-based, Homo sapiens; conditions: Homo sapiens, HCC2157;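 note: growth inhibition of the cancer cell line, read out as cell viability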
Description: SANGER: Inhibition of human HCC2157 cell growth in a cell viability assay.

HCC2218 = format: functional, cell-based, Homo sapiens; conditions: Homo sapiens, HCC2218;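 note: cell viability assay read-out, with IC50 given as the concentration that inhibits growth of the cell line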
Description: SANGER: Inhibition of human HCC2218 cell growth in a cell viability assay.

HCC 2998 = format: functional, cell-based, Homo sapiens; conditions: Homo sapiens, HCC 2998;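 note: growth inhibition of human HCC2998 cells, measured with a cell viability read-out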
Description: SANGER: Inhibition of human HCC2998 cell growth in a cell viability assay.

HT = format: functional, cell-based, Homo sapiens; conditions: Homo sapiens, HT
Description: SANGER: Inhibition of human HT cell growth in a cell viability assay.

J-RT3-T3-5 = format: functional, cell-based, Homo sapiens; conditions: Homo sapiens, J-RT3-T3-5;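 note: cell viability assay measuring growth inhibition of human J-RT3-T3-5 cells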
Description: SANGER: Inhibition of human J-RT3-T3-5 cell growth in a cell viability assay.

KM-H2 = format: functional, cell-based, Homo sapiens; conditions: Homo sapiens, KM-H2;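 note: growth inhibition of KM-H2 cells, read out by a cell viability assay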
Description: SANGER: Inhibition of human KM-H2 cell growth in a cell viability assay.

L-428 = format: functional, cell-based, Homo sapiens; conditions: Homo sapiens, L-428
Description: SANGER: Inhibition of human L-428 cell growth in a cell viability assay.

LB831-BLC = format: functional, cell-based, Homo sapiens; conditions: Homo sapiens, LB831-BLC;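 note: growth inhibition of LB831-BLC cells, read out with a cell viability assay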
Description: SANGER: Inhibition of human LB831-BLC cell growth in a cell viability assay.

LOX IMVI = format: functional, cell-based, Homo sapiens; conditions: Homo sapiens, LOX IMVI
Description: SANGER: Inhibition of human LOXIMVI cell growth in a cell viability assay.

LS-411N = format: functional, cell-based, Homo sapiens; conditions: Homo sapiens, LS-411N
MFH-ino = format: functional, cell-based, Homo sapiens; conditions: Homo sapiens, MFH-ino;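 note: growth inhibition of human MFH-ino cells, read out by a cell viability assay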
Description: SANGER: Inhibition of human MFH-ino cell growth in a cell viability assay.

MFM-223 = format: functional, cell-based, Homo sapiens; conditions: Homo sapiens, MFM-223
Description: SANGER: Inhibition of human MFM-223 cell growth in a cell viability assay.

MZ2-MEL = format: functional, cell-based, Homo sapiens; conditions: Homo sapiens, MZ2-MEL;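 note: growth inhibition of MZ2-MEL cells read out with a cell viability assay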
Description: SANGER: Inhibition of human MZ2-MEL cell growth in a cell viability assay.

Mo = format: functional, cell-based, Homo sapiens; conditions: Homo sapiens, Mo
Description: SANGER: Inhibition of human Mo-T cell growth in a cell viability assay.

NB12 = format: functional, cell-based, Homo sapiens; conditions: Homo sapiens, NB12;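 note: growth inhibition of human NB12 cells, read out by a cell viability assay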
Description: SANGER: Inhibition of human NB12 cell growth in a cell viability assay.

NCI-H1770 = format: functional, cell-based, Homo sapiens; conditions: Homo sapiens, NCI-H1770;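 note: growth inhibition of NCI-H1770 cells determined with a viability readout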
Description: SANGER: Inhibition of human NCI-H1770 cell growth in a cell viability assay.

NCI-H1838 = format: functional, cell-based, Homo sapiens; conditions: Homo sapiens, NCI-H1838;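 note: growth inhibition of NCI-H1838 cells, determined with a cell viability readout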
Description: SANGER: Inhibition of human NCI-H1838 cell growth in a cell viability assay.

NCI-H2126 = format: functional, cell-based, Homo sapiens; conditions: Homo sapiens, NCI-H2126;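 note: growth inhibition of the cancer cell line, determined with a cell viability readout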
Description: SANGER: Inhibition of human NCI-H2126 cell growth in a cell viability assay.

SNU1 = format: functional, cell-based, Homo sapiens; conditions: Homo sapiens, SNU1;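 note: growth inhibition of human NCI-SNU-1 cells, measured with a cell viability assay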
Description: SANGER: Inhibition of human NCI-SNU-1 cell growth in a cell viability assay.

ONS-76 = format: functional, cell-based, Homo sapiens; conditions: Homo sapiens, ONS-76;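 note: growth inhibition of human ONS-76 cells, read out with a cell viability assay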
Description: SANGER: Inhibition of human ONS-76 cell growth in a cell viability assay.

RPMI-8226 = format: functional, cell-based, Homo sapiens; conditions: Homo sapiens, RPMI-8226
Description: SANGER: Inhibition of human RPMI-8226 cell growth in a cell viability assay.

SBC-1 = format: functional, cell-based, Homo sapiens; conditions: Homo sapiens, SBC-1;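 note: cell viability assay measuring growth inhibition of the SBC-1 cell line, IC50 being the concentration that halves growth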
Description: SANGER: Inhibition of human SBC-1 cell growth in a cell viability assay.

SCH = format: functional, cell-based, Homo sapiens; conditions: Homo sapiens, SCH;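 note: growth inhibition of human SCH cells, read out in a cell viability assay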
Description: SANGER: Inhibition of human SCH cell growth in a cell viability assay.

SH-4 = format: functional, cell-based, Homo sapiens; conditions: Homo sapiens, SH-4;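 note: growth inhibition of SH-4 cells, read out with a cell viability assay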
Description: SANGER: Inhibition of human SH-4 cell growth in a cell viability assay.

SHP77 = format: functional, cell-based, Homo sapiens, SHP-77; conditions: Homo sapiens, SHP77;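 note: growth inhibition of human SHP-77 cells measured by a cell viability assay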
Description: SANGER: Inhibition of human SHP-77 cell growth in a cell viability assay.

SJSA-1 = format: functional, cell-based, Homo sapiens; conditions: Homo sapiens, SJSA-1;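 note: growth inhibition of human SJSA-1 cells, read out through a cell viability measurement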
Description: SANGER: Inhibition of human SJSA-1 cell growth in a cell viability assay.

SK-MEL-2 = format: functional, cell-based, Homo sapiens; conditions: Homo sapiens, SK-MEL-2;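 note: growth inhibition of human SK-MEL-2 cells measured with a cell viability assay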
Description: SANGER: Inhibition of human SK-MEL-2 cell growth in a cell viability assay.

SK-UT-1 = format: functional, cell-based, Homo sapiens; conditions: Homo sapiens, SK-UT-1;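 note: growth inhibition of SK-UT-1 cells, measured by a cell viability assay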
Description: SANGER: Inhibition of human SK-UT-1 cell growth in a cell viability assay.

SW 962 = format: functional, cell-based, Homo sapiens; conditions: Homo sapiens, SW 962;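 note: growth inhibition of human SW962 cells, read out by a cell viability assay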
Description: SANGER: Inhibition of human SW962 cell growth in a cell viability assay.

A101D = format: functional, cell-based, Homo sapiens; conditions: Homo sapiens, A101D;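 note: growth inhibition of the cell line, measured with a viability assay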
Description: SANGER: Inhibition of human A101D cell growth in a cell viability assay.

A3-KAW = format: functional, cell-based, Homo sapiens; conditions: Homo sapiens, A3-KAW;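 note: growth inhibition of human A3-KAW cells, read out with a cell viability assay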
Description: SANGER: Inhibition of human A3-KAW cell growth in a cell viability assay.

A4-Fuk = format: functional, cell-based, Homo sapiens; conditions: Homo sapiens, A4-Fuk;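 note: growth inhibition of A4-Fuk cells, read out by a cell viability assay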
Description: SANGER: Inhibition of human A4-Fuk cell growth in a cell viability assay.

ACN = format: functional, cell-based, Homo sapiens; conditions: Homo sapiens, ACN;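 note: growth inhibition of the human ACN cell line, read out via cell viability testing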
Description: SANGER: Inhibition of human ACN cell growth in a cell viability assay.

AM-38 = format: functional, cell-based, Homo sapiens; conditions: Homo sapiens, AM-38;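 note: growth inhibition of AM-38 cells of human origin, read out by a cell viability assay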
Description: SANGER: Inhibition of human AM-38 cell growth in a cell viability assay.

BB49-HNC = format: functional, cell-based, Homo sapiens; conditions: Homo sapiens, BB49-HNC;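 note: cell viability assay read-out, reported as inhibition of BB49-HNC cell growth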
Description: SANGER: Inhibition of human BB49-HNC cell growth in a cell viability assay.

TE-9 = format: functional, cell-based, Homo sapiens; conditions: Homo sapiens, TE-9;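 note: cell growth inhibition, measured with a cell viability readout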
Description: SANGER: Inhibition of human TE-9 cell growth in a cell viability assay.

UACC-257 = format: functional, cell-based, Homo sapiens; conditions: Homo sapiens, UACC-257
Description: SANGER: Inhibition of human UACC-257 cell growth in a cell viability assay.

With COc1cc(N2CCN(C)CC2)ccc1Nc1ncc2c(n1)N(C)c1ccccc1C(=O)N2C the pIC50 (COLO-824) was less than 5.10, the pIC50 (COR-L88) was less than 5.10 and the pIC50 (DJM-1) was less than 5.10. It also gave a pIC50 (DMS-114) of less than 5.10, a pIC50 (ES4) of less than 5.10 and a pIC50 (GR-ST) of 5.11. For the same molecule, the pIC50 (HAL-01) was 5.67, the pIC50 (HC-1) was less than 5.10 and the pIC50 (HCC1187) was less than 5.10. It also gave a pIC50 (HCC2157) of less than 5.10, a pIC50 (HCC2218) of less than 5.10 and a pIC50 (HCC 2998) of less than 5.10. The pIC50 (HT) was less than 5.10, the pIC50 (J-RT3-T3-5) was less than 5.10 and the pIC50 (KM-H2) was less than 5.10. It also gave a pIC50 (L-428) of less than 5.10, a pIC50 (LB831-BLC) of less than 5.10 and a pIC50 (LOX IMVI) of less than 5.10. For the same molecule, the pIC50 (LS-411N) was 5.15, the pIC50 (MFH-ino) was less than 5.10 and the pIC50 (MFM-223) was less than 5.10. For the same molecule, the pIC50 (MZ2-MEL) was less than 5.10, the pIC50 (Mo) was less than 5.10 and the pIC50 (NB12) was less than 5.10. The pIC50 (NCI-H1770) was 5.32, the pIC50 (NCI-H1838) was less than 5.10 and the pIC50 (NCI-H2126) was less than 5.10. It also gave a pIC50 (SNU1) of less than 5.10, a pIC50 (ONS-76) of less than 5.10 and a pIC50 (RPMI-8226) of less than 5.10. For the same molecule, the pIC50 (SBC-1) was less than 5.10, the pIC50 (SCH) was less than 5.10 and the pIC50 (SH-4) was 5.70. The pIC50 (SHP77) was less than 5.10, the pIC50 (SJSA-1) was less than 5.10 and the pIC50 (SK-MEL-2) was less than 5.10. It also gave a pIC50 (SK-UT-1) of less than 5.10, a pIC50 (SW 962) of less than 5.10 and a pIC50 (A101D) of 5.12. It also gave a pIC50 (A3-KAW) of 5.37, a pIC50 (A4-Fuk) of 5.41 and a pIC50 (ACN) of less than 5.10. The pIC50 (AM-38) was less than 5.10, the pIC50 (BB49-HNC) was less than 5.10 and the pIC50 (TE-9) was less than 5.10. For the same molecule, the pIC50 (UACC-257) was 5.15.

In the case of C#Cc1cccc(Nc2ncnc3cc(OCCOC)c(OCCOC)cc23)c1 [ERLOTINIB], the pIC50 (COLO-824) was less than 5.70, the pIC50 (COR-L88) was less than 5.70 and the pIC50 (DJM-1) was less than 5.70. The pIC50 (DMS-114) was less than 5.70, the pIC50 (ES4) was less than 5.70 and the pIC50 (GR-ST) was less than 5.70. The pIC50 (HAL-01) was less than 5.70, the pIC50 (HC-1) was less than 5.70 and the pIC50 (HCC1187) was less than 5.70. It also gave a pIC50 (HCC2157) of less than 5.70, a pIC50 (HCC2218) of less than 5.70 and a pIC50 (HCC 2998) of less than 5.70. The pIC50 (HT) was less than 5.70, the pIC50 (J-RT3-T3-5) was less than 5.70 and the pIC50 (KM-H2) was less than 5.70. The pIC50 (L-428) was less than 5.70, the pIC50 (LB831-BLC) was less than 5.70 and the pIC50 (LOX IMVI) was less than 5.70. The pIC50 (LS-411N) was less than 5.70, the pIC50 (MFH-ino) was less than 5.70 and the pIC50 (MFM-223) was less than 5.70. For the same molecule, the pIC50 (MZ2-MEL) was less than 5.70, the pIC50 (Mo) was less than 5.70 and the pIC50 (NB12) was less than 5.70. For the same molecule, the pIC50 (NCI-H1770) was less than 5.70, the pIC50 (NCI-H1838) was less than 5.70 and the pIC50 (NCI-H2126) was less than 5.70. The pIC50 (SNU1) was less than 5.70, the pIC50 (ONS-76) was less than 5.70 and the pIC50 (SCH) was less than 5.70. For the same molecule, the pIC50 (SH-4) was less than 5.70, the pIC50 (SHP77) was less than 5.70 and the pIC50 (SJSA-1) was less than 5.70. The pIC50 (SK-MEL-2) was less than 5.70, the pIC50 (SK-UT-1) was less than 5.70 and the pIC50 (SW 962) was less than 5.70. For the same molecule, the pIC50 (A101D) was less than 5.70, the pIC50 (A3-KAW) was less than 5.70 and the pIC50 (A4-Fuk) was less than 5.70. For the same molecule, the pIC50 (ACN) was less than 5.70, the pIC50 (AM-38) was less than 5.70 and the pIC50 (BB49-HNC) was less than 5.70. It also gave a pIC50 (TE-9) of 5.91 and a pIC50 (UACC-257) of less than 5.70.
